Assays:
Format in all cases: in vivo, mice
[1] = test system: PANC-05-04 xenograft tumors; assay: PANC-05-04 pancreatic tumor xenograft, Example 7; settings: Palbociclib 130 mg/kg PO QD
Description: (§1) The compound of the disclosure was evaluated in a couple of different pancreatic tumor xenograft models: PANC-05-04 and BXPC-3.

[2] = test system: H1650 xenograft tumors; assay: H1650 lung tumor xenograft, Example 5; settings: Palbociclib 130 mg/kg PO QD
Description: (§2) The compound of the disclosure was evaluated in several different lung tumor xenograft models: HCC4006, SW1573 PRMT5-044, H1650, and A549 PRMT-034. […] 2021, incorporated by reference in its entirety.

[3] = test system: BXPC-3 xenograft tumors; assay: BXPC-3 pancreatic tumor xenograft, Example 8; settings: Palbociclib 130 mg/kg PO QD
Description: as §1

[4] = test system: HCC4006 xenograft tumors; assay: HCC4006 lung tumor xenograft, Example 3; settings: Palbociclib 130 mg/kg PO QD
Description: as §2

[5] = test system: A549 PRMT-034 xenograft tumors; assay: A549 PRMT-034 lung tumor xenograft, Example 6; settings: Palbociclib 130 mg/kg PO QD
Description: as §2

[6] = test system: MKN45 xenograft tumors; assay: MKN45 gastric tumor xenograft, Example 9; settings: Palbociclib 130 mg/kg PO QD
Description: Immunodeficient female nu/nu mice were implanted with 5×10^6 LU99 lung cancer cells in 50% Matrigel. Tumors were measured using calipers until they reached approximately 150-200 mm^3. Animals were randomized to receive A) vehicle (0.5% methylcellulose (4000 cps)/0.2% Tween80 in water), B) a PRMT5 inhibitor, C) CDK4/6 inhibitor, or D) the PRMT5 inhibitor and CDK4/6 inhibitor, all administered orally (PO) for 21 days. Tumor volume was measured twice a week (n=5/treatment group). Average tumor volume and standard error of the mean was calculated and plotted at each study day in GraphPad.

[7] = test system: KRAS^G12C and CDKN2A/MTAP^DEL lung tumor xenograft LU99 model; assay: LU99 lung tumor xenograft, Example 2 (MRTX7477 / palbociclib); settings: palbociclib 130 mg/kg PO QD
Description: (§3) 2021, incorporated by reference in its entirety.

[8] = test system: KRAS^G12C and CDKN2A/MTAP^DEL lung tumor xenograft LU99 model; assay: LU99 lung tumor xenograft, Example 1 (MRTX9768 / palbociclib); settings: palbociclib 130 mg/kg PO QD
Description: as §3
The CDK4/6 inhibitor used in this example was palbociclib administered at 130mg/kg once a day (QD). Palbociclib is 6-acetyl-8-cyclopentyl-5-methyl-2-[(5-piperazin-1-ylpyridin-2-yl)amino]pyrido[2,3-d]pyrimidin-7-one, and is sold as Ibrance® available from Pfizer Inc., New York, New York.

[9] = Day 0, MRTX1719 100 mg/kg PO QD
[10] = Day 3, MRTX1719 100 mg/kg PO QD
[11] = Day 7, MRTX1719 100 mg/kg PO QD
[12] = Day 10, MRTX1719 100 mg/kg PO QD
[13] = Day 14, MRTX1719 100 mg/kg PO QD
[14] = Day 17, MRTX1719 100 mg/kg PO QD
[15] = Day 20, MRTX1719 100 mg/kg PO QD
[16] = Day 13, MRTX1719 50 mg/kg PO QD
[17] = Day 16, MRTX1719 50 mg/kg PO QD
[18] = Day 20, MRTX1719 50 mg/kg PO QD
[19] = Day 2, MRTX1719 100 mg/kg PO QD
[20] = Day 5, MRTX1719 100 mg/kg PO QD
[21] = Day 9, MRTX1719 100 mg/kg PO QD
[22] = Day 12, MRTX1719 100 mg/kg PO QD
[23] = Day 16, MRTX1719 100 mg/kg PO QD
[24] = Day 1, MRTX1719 100 mg/kg PO QD
[25] = Day 8, MRTX1719 100 mg/kg PO QD
[26] = Day 15, MRTX1719 100 mg/kg PO QD
[27] = Day 19, MRTX1719 100 mg/kg PO QD
[28] = Day 22, MRTX1719 100 mg/kg PO QD
[29] = Day 26, MRTX1719 100 mg/kg PO QD
[30] = Day 29, MRTX1719 100 mg/kg PO QD
[31] = Day 34, MRTX1719 100 mg/kg PO QD

Cn1ncc(-c2ccc3c(=O)[nH]nc(CN)c3c2)c1-c1c(F)c(Cl)cc(OC2CC2)c1C#N [MRTX1719, (2M)-2-(4-(4-(aminomethyl)-1-oxo-1,2-dihydrophthalazin-6-yl)-1-methyl-1H-pyrazol-5-y1)-4-chloro-6-cyclopropoxy-3-fluorobenzonitrile]
Tumor Volume, Mean [1, 9]: 149 mm^3 | Tumor Volume, Mean [1, 10]: 382 mm^3 | Tumor Volume, Mean [1, 11]: 519 mm^3 | Tumor Volume, Mean [1, 12]: 559 mm^3 | Tumor Volume, Mean [1, 13]: 563 mm^3 | Tumor Volume, Mean [1, 14]: 624 mm^3 | Tumor Volume, Mean [1, 15]: 603 mm^3 | Tumor Volume, Mean [2, 9]: 146 mm^3 | Tumor Volume, Mean [2, 10]: 231 mm^3 | Tumor Volume, Mean [2, 11]: 471 mm^3 | Tumor Volume, Mean [2, 12]: 599 mm^3 | Tumor Volume, Mean [2, 13]: 625 mm^3 | Tumor Volume, Mean [2, 14]: 711 mm^3 | Tumor Volume, Mean [2, 15]: 635 mm^3 | Tumor Volume, Mean ([3]; Day 0, MRTX1719 50 mg/kg PO QD): 122 mm^3 | Tumor Volume, Mean ([3]; Day 3, MRTX1719 50 mg/kg PO QD): 174 mm^3 | Tumor Volume, Mean ([3]; Day 6, MRTX1719 50 mg/kg PO QD): 206 mm^3 | Tumor Volume, Mean ([3]; Day 9, MRTX1719 50 mg/kg PO QD): 310 mm^3 | Tumor Volume, Mean [3, 16]: 359 mm^3 | Tumor Volume, Mean [3, 17]: 372 mm^3 | Tumor Volume, Mean [3, 18]: 368 mm^3 | Tumor Volume, Mean [4, 9]: 126 mm^3 | Tumor Volume, Mean [4, 19]: 150 mm^3 | Tumor Volume, Mean [4, 20]: 159 mm^3 | Tumor Volume, Mean [4, 21]: 154 mm^3 | Tumor Volume, Mean [4, 22]: 156 mm^3 | Tumor Volume, Mean [4, 23]: 159 mm^3 | Tumor Volume, Mean [4, 15]: 78 mm^3 | Tumor Volume, Mean [5, 24]: 118 mm^3 | Tumor Volume, Mean [5, 25]: 169 mm^3 | Tumor Volume, Mean [5, 22]: 200 mm^3 | Tumor Volume, Mean [5, 26]: 210 mm^3 | Tumor Volume, Mean [5, 27]: 214 mm^3 | Tumor Volume, Mean [5, 28]: 221 mm^3 | Tumor Volume, Mean [5, 29]: 263 mm^3 | Tumor Volume, Mean [5, 30]: 288 mm^3 | Tumor Volume, Mean [5, 31]: 325 mm^3 | Tumor Volume, Mean [6, 9]: 105 mm^3 | Tumor Volume, Mean [6, 10]: 165 mm^3 | Tumor Volume, Mean [6, 11]: 207 mm^3 | Tumor Volume, Mean [6, 12]: 221 mm^3 | Tumor Volume, Mean [6, 13]: 214 mm^3 | Tumor Volume, Mean [6, 14]: 230 mm^3 | Tumor Volume, Mean [6, 15]: 221 mm^3

CC(=O)c1c(C)c2cnc(Nc3ccc(N4CCNCC4)cn3)nc2n(C2CCCC2)c1=O [palbociclib, 6-acetyl-8-cyclopentyl-5-methyl-2-[(5-piperazin-1-ylpyridin-2-yl)amino]pyrido[2,3-d]pyrimidin-7-one]
Tumor Volume, Mean [1, 9]: 149 mm^3 | Tumor Volume, Mean [1, 10]: 319 mm^3 | Tumor Volume, Mean [1, 11]: 365 mm^3 | Tumor Volume, Mean [1, 12]: 378 mm^3 | Tumor Volume, Mean [1, 13]: 341 mm^3 | Tumor Volume, Mean [1, 14]: 391 mm^3 | Tumor Volume, Mean [1, 15]: 350 mm^3 | Tumor Volume, Mean [2, 9]: 147 mm^3 | Tumor Volume, Mean [2, 10]: 268 mm^3 | Tumor Volume, Mean [2, 11]: 356 mm^3 | Tumor Volume, Mean [2, 12]: 493 mm^3 | Tumor Volume, Mean [2, 13]: 480 mm^3 | Tumor Volume, Mean [2, 14]: 589 mm^3 | Tumor Volume, Mean [2, 15]: 743 mm^3 | Tumor Volume, Mean ([3]; Day 0, MRTX1719 50 mg/kg PO QD): 122 mm^3 | Tumor Volume, Mean ([3]; Day 3, MRTX1719 50 mg/kg PO QD): 162 mm^3 | Tumor Volume, Mean ([3]; Day 6, MRTX1719 50 mg/kg PO QD): 174 mm^3 | Tumor Volume, Mean ([3]; Day 9, MRTX1719 50 mg/kg PO QD): 187 mm^3 | Tumor Volume, Mean [3, 16]: 195 mm^3 | Tumor Volume, Mean [3, 17]: 190 mm^3 | Tumor Volume, Mean [3, 18]: 193 mm^3 | Tumor Volume, Mean [4, 9]: 127 mm^3 | Tumor Volume, Mean [4, 19]: 155 mm^3 | Tumor Volume, Mean [4, 20]: 143 mm^3 | Tumor Volume, Mean [4, 21]: 117 mm^3 | Tumor Volume, Mean [4, 22]: 115 mm^3 | Tumor Volume, Mean [4, 23]: 111 mm^3 | Tumor Volume, Mean [4, 15]: 100 mm^3 | Tumor Volume ([7]; Day 1, MRTX7477 200 mg/kg PO BID): 209.8 mm^3 | Tumor Volume ([7]; Day 5, MRTX7477 200 mg/kg PO BID): 215.9 mm^3 | Tumor Volume ([7]; Day 8, MRTX7477 200 mg/kg PO BID): 277.3 mm^3 | Tumor Volume ([7]; Day 12, MRTX7477 200 mg/kg PO BID): 359.4 mm^3 | Tumor Volume ([7]; Day 15, MRTX7477 200 mg/kg PO BID): 413.5 mm^3 | Tumor Volume ([7]; Day 19, MRTX7477 200 mg/kg PO BID): 675.9 mm^3 | Tumor Volume ([7]; Day 21, MRTX7477 200 mg/kg PO BID): 827.0 mm^3 | Tumor Volume ([7]; Day −2, MRTX7477 200 mg/kg PO BID): 133.4 mm^3 | Tumor Volume, Mean [5, 24]: 118 mm^3 | Tumor Volume, Mean [5, 20]: 134 mm^3 | Tumor Volume, Mean [5, 25]: 155 mm^3 | Tumor Volume, Mean [5, 22]: 177 mm^3 | Tumor Volume, Mean [5, 26]: 189 mm^3 | Tumor Volume, Mean [5, 27]: 179 mm^3 | Tumor Volume, Mean [5, 28]: 186 mm^3 | Tumor Volume, Mean [5, 29]: 220 mm^3 | Tumor Volume, Mean [5, 30]: 255 mm^3 | Tumor Volume, Mean [5, 31]: 263 mm^3 | Tumor Volume, Mean ([8]; Day 0, MRTX9768 100 mg/kg PO BID): 184.39 mm^3 | Tumor Volume, Mean ([8]; Day 3, MRTX9768 100 mg/kg PO BID): 247.02 mm^3 | Tumor Volume, Mean ([8]; Day 7, MRTX9768 100 mg/kg PO BID): 355.77 mm^3 | Tumor Volume, Mean ([8]; Day 10, MRTX9768 100 mg/kg PO BID): 482.60 mm^3 | Tumor Volume, Mean ([8]; Day 14, MRTX9768 100 mg/kg PO BID): 731.56 mm^3 | Tumor Volume, Mean ([8]; Day 17, MRTX9768 100 mg/kg PO BID): 914.41 mm^3 | Tumor Volume, Mean ([8]; Day 21, MRTX9768 100 mg/kg PO BID): 1148.44 mm^3 | Tumor Volume, Mean [6, 9]: 106 mm^3 | Tumor Volume, Mean [6, 10]: 158 mm^3 | Tumor Volume, Mean [6, 11]: 236 mm^3 | Tumor Volume, Mean [6, 12]: 264 mm^3 | Tumor Volume, Mean [6, 13]: 330 mm^3 | Tumor Volume, Mean [6, 14]: 434 mm^3 | Tumor Volume, Mean [6, 15]: 474 mm^3
